{"source": "ChEMBL document CHEMBL1143399", "about": "“A small-molecule nitroimidazopyran drug candidate for the treatment of tuberculosis” (Nature, 2000)", "assay_type_in_all_cases": "functional", "key": {"[1]": {"test_system": "Mycobacterium tuberculosis", "assay": "Antimycobacterial activity against mono-rifampin-resistant Mycobacterium tuberculosis TN675"}, "[2]": {"test_system": "Mycobacterium tuberculosis", "assay": "Antimycobacterial activity against mono-rifampin-resistant Mycobacterium tuberculosis TN994"}, "[3]": {"test_system": "Mycobacterium tuberculosis", "assay": "Antimycobacterial activity against multidrug-resistant Mycobacterium tuberculosis TN702"}, "[4]": {"test_system": "Mycobacterium tuberculosis", "assay": "Antimycobacterial activity against multidrug-resistant Mycobacterium tuberculosis TN1618"}, "[5]": {"test_system": "Mycobacterium tuberculosis", "assay": "Antimycobacterial activity against multidrug-resistant Mycobacterium tuberculosis TN576"}, "[6]": {"test_system": "Mycobacterium tuberculosis", "assay": "Antimycobacterial activity against multidrug-resistant Mycobacterium tuberculosis TN768"}, "[7]": {"test_system": "Mycobacterium tuberculosis", "assay": "Antimycobacterial activity against multidrug-resistant Mycobacterium tuberculosis TN2557"}, "[8]": {"test_system": "Mycobacterium tuberculosis", "assay": "Antimycobacterial activity against multidrug-resistant Mycobacterium tuberculosis TN1195"}, "[9]": {"test_system": "Mycobacterium tuberculosis", "assay": "Antimycobacterial activity against multidrug-resistant Mycobacterium tuberculosis TN1314"}, "[10]": {"test_system": "Mycobacterium tuberculosis", "assay": "Antimycobacterial activity against multidrug-resistant Mycobacterium tuberculosis TN565"}, "[11]": {"test_system": "Mycobacterium tuberculosis", "assay": "Antimycobacterial activity against multidrug-resistant Mycobacterium tuberculosis TN1811"}, "[12]": {"test_system": "Mycobacterium tuberculosis", "assay": "Antimycobacterial activity against multidrug-resistant Mycobacterium tuberculosis TN715"}, "[13]": {"test_system": "Mycobacterium tuberculosis", "assay": "Antimycobacterial activity against multidrug-resistant Mycobacterium tuberculosis TN772"}}}
{"smiles": "NNC(=O)c1ccncc1", "note": "[ISONIAZID]", "values": [{"measurement": "MIC", "setting": "[1]", "value": 0.03, "unit": "µg/mL"}, {"measurement": "MIC", "setting": "[2]", "value": 0.03, "unit": "µg/mL"}]}
{"smiles": "O=[N+]([O-])c1cn2c(n1)OC[C@@H](OCc1ccc(OC(F)(F)F)cc1)C2", "note": "[PRETOMANID]", "values": [{"measurement": "MIC", "setting": "[3]", "value": 0.25, "unit": "µg/mL"}, {"measurement": "MIC", "setting": "[4]", "value": 0.06, "unit": "µg/mL"}, {"measurement": "MIC", "setting": "[5]", "value": 0.06, "unit": "µg/mL"}, {"measurement": "MIC", "setting": "[6]", "value": 0.06, "unit": "µg/mL"}, {"measurement": "MIC", "setting": "[1]", "value": 0.015, "unit": "µg/mL"}, {"measurement": "MIC", "setting": "[7]", "value": 0.13, "unit": "µg/mL"}, {"measurement": "MIC", "setting": "[8]", "value": 0.25, "unit": "µg/mL"}, {"measurement": "MIC", "setting": "[9]", "value": 0.03, "unit": "µg/mL"}, {"measurement": "MIC", "setting": "[10]", "value": 0.06, "unit": "µg/mL"}, {"measurement": "MIC", "setting": "[2]", "value": 0.03, "unit": "µg/mL"}, {"measurement": "MIC", "setting": "[11]", "value": 0.03, "unit": "µg/mL"}, {"measurement": "MIC", "setting": "[12]", "value": 0.06, "unit": "µg/mL"}, {"measurement": "MIC", "setting": "[13]", "value": 0.03, "unit": "µg/mL"}]}
